{
  "source": "paper PMC10865345",
  "about": "“Multivalent Calixarene Complexation of a Designed Pentameric Lectin” (Biomacromolecules, 2024)",
  "target": "T1, Pent (designed pentameric 5-bladed β-propeller lectin, 5c2n-N33K)",
  "T1 construct": "47-residue monomer (lacking Met1), homopentamer of ~26 kDa; designed, based on tachylectin-2 (PDB 5C2N)",
  "assay": "X-ray cocrystal structures (forms I and II); 1H-15N HSQC NMR titration",
  "type": "binding, synthetic construct",
  "data": [
    {"smiles": "O=S(=O)(O)c1cc2c(O)c(c1)Cc1cc(S(=O)(=O)O)cc(c1O)Cc1cc(S(=O)(=O)O)cc(c1O)Cc1cc(S(=O)(=O)O)cc(c1O)Cc1cc(S(=O)(=O)O)cc(c1O)Cc1cc(S(=O)(=O)O)cc(c1O)Cc1cc(S(=O)(=O)O)cc(c1O)Cc1cc(S(=O)(=O)O)cc(c1O)C2", "note": "[sclx8, sulfonato-calix[8]arene]", "values": [
      {"measurement": "Kd", "value": "< 3000", "unit": "nM"}
    ]}
  ]
}
